Like-named read-outs stand apart in the source and are kept apart here. Where only a bound is given, the exact number is not on record here.

Drawing on patent US12091402B2 (Avilar Therapeutics, Inc., priority 2021, dated 2024), this text covers EC50 and Kd for three molecules.

Test [1] concerns the target T1, ASGPR receptor on the cell surface (HepG2 cells) (Homo sapiens, UniProt P07306).
T1 construct: host or cells: HepG2
T1 sequence (P07306 1-291): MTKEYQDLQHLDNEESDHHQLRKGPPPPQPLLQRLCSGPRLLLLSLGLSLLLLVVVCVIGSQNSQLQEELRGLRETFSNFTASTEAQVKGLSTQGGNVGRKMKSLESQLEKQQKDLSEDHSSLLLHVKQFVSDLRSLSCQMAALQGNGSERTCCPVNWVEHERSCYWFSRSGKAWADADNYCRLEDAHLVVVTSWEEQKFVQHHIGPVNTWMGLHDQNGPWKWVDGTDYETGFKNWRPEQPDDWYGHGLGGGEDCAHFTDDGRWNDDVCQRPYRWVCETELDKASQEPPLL
T1 sequence (P07307 1-311 partner): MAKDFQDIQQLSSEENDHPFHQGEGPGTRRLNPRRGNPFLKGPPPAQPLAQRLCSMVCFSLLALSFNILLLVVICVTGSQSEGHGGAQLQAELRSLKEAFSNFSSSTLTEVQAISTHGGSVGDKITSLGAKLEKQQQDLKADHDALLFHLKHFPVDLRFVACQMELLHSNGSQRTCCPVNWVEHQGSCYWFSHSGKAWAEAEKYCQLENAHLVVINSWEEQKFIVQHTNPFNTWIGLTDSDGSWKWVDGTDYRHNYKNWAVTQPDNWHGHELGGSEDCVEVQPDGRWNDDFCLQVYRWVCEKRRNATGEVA
Nature of the test: Ternary complex formation assay (flow cytometry, HepG2). Format: cell-based. The note with it: HepG2 cells. The text has this:
The ternary complex formation assay is designed to identify the concentration of Degrader required to form a complex between the degrader, a constant concentration of fluorescently-labeled antibody and the ASGPR receptor on the cell surface. The peak mean fluorescence intensity (MFI) occurs at the optimal degrader concentration for ternary complex formation. Sub-optimal concentrations of degrader (too much or too little) results in fewer complexes formed and a reduced […].
Human IgG (Sigma-Aldrich, 14506) was covalently labeled with Alexa Fluor 488 using the Alexa Fluor™ 488 Protein Labeling Kit (Thermo Fisher, A10235) following the manufacturer's instructions. HepG2 cells (ATCC, HIB-8065) were cultured to about 70% confluence and harvested by trypsinization. Single cell suspensions of HepG2 cells were plated in 96 well plates at 1×10^5 cells/well in cell culture media (DMEM supplemented with […]) and placed at 4° C. For studies using human IgG, cells were incubated with 100 nM AF488-labeled anti-human IgG and serial dilutions of IgG-based degrader for 1 hour at 4° C. For studies using DNP, cells were incubated with 100 nM AF488-labeled polyclonal rabbit anti-dinitrophenyl (DNP) antibodies (ThermoFisher) and serial dilutions of DNP-based degrader for 1 hour at 4° C. After washing once with ice-cold PBS containing 0.1% BSA and 0.1% sodium azide, cells were resuspended in 150 uL PBS+0.1% BSA and cell-associated AF488 fluorescence was measured by flow cytometry using the iQue® Screener PLUS Flow Cytometer (IntelliCyt).

Another test concerns the target T2, ASGPR (Homo sapiens, UniProt P07306).
T2 sequence (P07306 1-291): T1 sequence (P07306 1-291)
In words: Affinity to ASGPR by surface plasmon resonance (SPR).

The next test deals with IgG. In words: Affinity to IgG by surface plasmon resonance (SPR). Format: binding. As to conditions: Biacore 8K, 25° C., IgG on CM5 chip; read-out: IgG SPR Binding Kd. Here is the method: Immobilization levels ranging from 1000-1300 resonance units (RU) are obtained. The running buffer is 10 mM HEPES, pH 7.4, 400 mM NaCl, 0.005% P20, […].

Consider `O=C(CCOCC(COCCC(=O)NCCOCCOCCOCCOC[C@@]12CO[C@@H](O1)[C@H](NC(=O)C(F)(F)F)[C@@H](O)[C@H]2O)NC(=O)COCCOCCOCCNc1ccccc1)NCCOCCOCCOCCOC[C@@]12CO[C@@H](O1)[C@H](NC(=O)C(F)(F)F)[C@@H](O)[C@H]2O` [A12, 3,3′-((2-(2-(2-(2-(2-(phenylamino)ethoxy)ethoxy)ethoxy)acetamido)propane-1,3-diyl)bis(oxy))bis(N-(1-((1S,2R,3R,4R,5S)-2,3-dihydroxy-4-(2,2,2-trifluoroacetamido)-6,8-dioxabicyclo[3.2.1]octan-1-yl)-2,5,8,11-tetraoxatridecan-13-yl)propanamide)], for which the concentration for a half-maximal effect (EC50) in test [1] (100 nM AF488-labeled antibody, 1 hour at 4° C., numeric bounds, read-out: Ternary Complex EC50) is greater than 10000 nM.
On to `CC(C)C[C@@H]1NC(=O)[C@H](Cc2c[nH]cn2)NC(=O)[C@H](Cc2c[nH]c3ccccc23)NC(=O)[C@H](C)NC(=O)[C@@H]2CSSC[C@H](NC(=O)[C@H](Cc3c[nH]c4ccccc34)NC(=O)[C@H](C(C)C)NC(=O)[C@H](CC(C)C)NC(=O)[C@H](CCC(=O)O)NC(=O)CNC1=O)C(=O)N[C@@H]([C@@H](C)O)C(=O)N1CCC[C@@H]1C(=O)N1C[C@@H](NC(=O)CCOCCOCCOCCOCCNC(=O)CCCc3cn(CCCCCC(=O)NC(COCCC(=O)NCCOCCOCCOCCOC[C@H]4OC[C@H](Nc5nccc(C(F)(F)F)n5)[C@@H](O)[C@H]4O)(COCCC(=O)NCCOCCOCCOCCOC[C@H]4OC[C@H](Nc5nccc(C(F)(F)F)n5)[C@@H](O)[C@H]4O)COCCC(=O)NCCOCCOCCOCCOC[C@H]4OC[C@H](Nc5nccc(C(F)(F)F)n5)[C@@H](O)[C@H]4O)nn3)C[C@H]1C(=O)N[C@@H](CC(=O)O)C(=O)N2` [Compound 86], for which, in test [1] (ternary complex formation, read-out: TCF EC50), the concentration for a half-maximal effect (EC50) was less than 100 nM. On ASGPR, this molecule returned an equilibrium dissociation constant (Kd) of less than 100 nM.
Turning to `CC(C)C[C@@H]1NC(=O)[C@H](Cc2cnc[nH]2)NC(=O)[C@H](Cc2c[nH]c3ccccc23)NC(=O)[C@H](C)NC(=O)[C@@H]2CSSC[C@H](NC(=O)[C@H](Cc3c[nH]c4ccccc34)NC(=O)[C@H](C(C)C)NC(=O)[C@H](CC(C)C)NC(=O)[C@H](CCC(=O)O)NC(=O)CNC1=O)C(=O)N[C@@H]([C@@H](C)O)C(=O)N1CCC[C@@H]1C(=O)N1C[C@@H](NC(=O)COCCOCCOCCOC[C@H]3OC[C@H](Nc4nccc(C(F)(F)F)n4)[C@@H](O)[C@H]3O)C[C@H]1C(=O)N[C@@H](CC(=O)O)C(=O)N2` [Compound 60], at IgG, the dissociation constant (Kd) is less than 100 nM. Besides, in test [1] (100 nM AF488-labeled antibody, 1 hour at 4° C., class symbols, read-out: Ternary Complex EC50), the 50% effective concentration (EC50) is less than 100 nM.
